Measured values taken from US8993756B2 (Merck Sharp & Dohme Corp., priority 2011, dated 2015).

What was measured:
JAK2 = JAK2 (Homo sapiens (Human), UniProt O60674); test: Jak Biochemical HTRF Assay (JAK2); details: recombinant GST-tagged catalytic domain, [ATP] 8.5 μM
Description: (§1) Biological Assays Jak Biochemical HTRF Assay Protocol
The ability of compounds to inhibit the activity of JAK1, JAK2, JAK3, and Tyk2 was measured using a recombinant purified GST-tagged catalytic domain for each enzyme (Invitrogen JAK1 #M4290, JAK2 #M4290, JAK3 #M4290, Tyk2 #M4290) in an HTRF format biochemical assay. […] The basic assay protocol is as follows: First, 250 nL of diluted compounds in DMSO were dispensed into the wells of a dry 384-well Black plate (Greiner #781076) using a Labcyte Echo 555 acoustic dispenser. Subsequent reagent additions employed an Agilent Bravo. Next, 18 μL of 1.11× enzyme and 1.11× substrate in 1× assay buffer (Invitrogen kinase buffer # PV3189, 2 mM DTT, 0.05% BSA) were added to the wells and shaken and then preincubated for 30 minutes at room temperature to allow compound binding to equilibrate. After equilibration, 2 μL of 10×ATP in 1× assay buffer was added to initiate the kinase reaction and the plates were shaken and then incubated at room temperature for 120 minutes. At the end of the incubation, 20 μL of 2× stop buffer (streptavidin-Dylight 650 (Thermo #84547B100 mL), Eu-tagged pY20 antibody (Perkin Elmer #AD0067), EDTA, HEPES, and Triton) was added to quench the reaction. Plates were shaken and centrifuged and then incubated 60 minutes at room temperature and then read on a Perkin Elmer Envision (λex=337 nm, λem=665 and 615 nm, TRF delay time=20 μs). HTRF signal=10,000*665 nm reading 615 nm reading. After normalization to untreated controls, the percent inhibition of the HTRF signal at each compound concentration was calculated. The plot of percent inhibition versus the log of compound concentration was fit with a 4-parameter dose response equation to calculate IC50 values.

JAK3 = JAK3 (Homo sapiens (Human), UniProt P52333); test: Jak Biochemical HTRF Assay (JAK3); details: recombinant GST-tagged catalytic domain, [ATP] 2.9 μM
Description: as §1
The ability of compounds to inhibit the activity of JAK1, JAK2, JAK3, and Tyk2 was measured using a recombinant purified GST-tagged catalytic domain for each enzyme (Invitrogen JAK1 #M4290, JAK2 #M4290, JAK3 #M4290, Tyk2 #M4290) in an HTRF format biochemical assay. […] Subsequent reagent additions employed an Agilent Bravo. […] After equilibration, 2 μL of 10×ATP in 1× assay buffer was added to initiate the kinase reaction and the plates were shaken and then incubated at room temperature for 120 minutes. At the end of the incubation, 20 μL of 2× stop buffer (streptavidin-Dylight 650 (Thermo #84547B100 mL), Eu-tagged pY20 antibody (Perkin Elmer #AD0067), EDTA, HEPES, and Triton) was added to quench the reaction. […] After normalization to untreated controls, the percent inhibition of the HTRF signal at each compound concentration was calculated. The plot of percent inhibition versus the log of compound concentration was fit with a 4-parameter dose response equation to calculate IC50 values.

JAK3, sequence (P52333 822-1111): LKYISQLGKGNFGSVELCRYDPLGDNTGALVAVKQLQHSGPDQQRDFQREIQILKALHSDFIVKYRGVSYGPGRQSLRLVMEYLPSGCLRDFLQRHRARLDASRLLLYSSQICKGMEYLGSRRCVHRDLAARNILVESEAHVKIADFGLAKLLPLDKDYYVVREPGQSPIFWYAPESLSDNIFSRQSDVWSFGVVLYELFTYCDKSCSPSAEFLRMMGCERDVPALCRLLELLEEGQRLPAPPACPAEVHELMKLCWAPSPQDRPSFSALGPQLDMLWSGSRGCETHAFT
JAK2, sequence (O60674 849-1124): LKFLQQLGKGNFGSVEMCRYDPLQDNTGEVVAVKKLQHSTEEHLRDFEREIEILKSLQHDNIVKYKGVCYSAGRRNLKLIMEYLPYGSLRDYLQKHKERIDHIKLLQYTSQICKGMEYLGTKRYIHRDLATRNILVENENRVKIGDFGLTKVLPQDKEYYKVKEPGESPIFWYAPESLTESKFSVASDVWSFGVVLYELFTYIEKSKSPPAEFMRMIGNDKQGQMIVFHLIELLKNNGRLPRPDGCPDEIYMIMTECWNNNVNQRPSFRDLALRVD

Row | SMILES | IC50 (JAK2) [nM] | IC50 (JAK3) [nM] | IC50 (JAK2; given as range class) [nM] | IC50 (JAK3; given as range class) [nM]
1 | CCOC(=O)c1c[nH]c2ncnc(-c3ccccc3)c12 [Example 1-1, Ethyl 4-phenyl-7H-pyrrolo[2,3-d]pyrimidine-5-carboxylate] | 91 | 5.5 | – | –
2 | CCOC(=O)c1c[nH]c2ncnc(-c3ccc(Cl)cc3)c12 [Example 1-2, Ethyl 4-(4-chlorophenyl)-7H-pyrrolo[2,3-d]pyrimidine-5-carboxylate] | – | – | 10 to 500 | 10 to 500
3 | CCOC(=O)c1c[nH]c2ncnc(-c3cccc(N)c3)c12 [Example 1-3, Ethyl 4-(3-aminophenyl)-7H-pyrrolo[2,3-d]pyrimidine-5-carboxylate] | – | – | > 500 | 10 to 500
4 | CCOC(=O)c1c[nH]c2ncnc(-c3cc(N)nc(OC)c3)c12 [Example 1-4] | – | – | > 500 | 10 to 500
5 | CCOC(=O)c1c[nH]c2ncnc(-c3cccc(C#N)c3)c12 [Example 1-6, ethyl 4-(3-cyanophenyl)-7H-pyrrolo[2,3-d]pyrimidine-5-carboxylate] | – | – | 10 to 500 | 10 to 500
6 | CCOC(=O)c1c[nH]c2ncnc(-c3ccc(C#N)cc3)c12 [Example 1-10, ethyl 4-(4-cyanophenyl)-7H-pyrrolo[2,3-d]pyrimidine-5-carboxylate] | – | – | > 500 | 10 to 500
7 | CCOC(=O)c1c[nH]c2ncnc(-c3ccc(S(C)(=O)=O)cc3)c12 [Example 1-11, ethyl 4-[4-(methylsulfonyl)phenyl]-7H-pyrrolo[2,3-d]pyrimidine-5-carboxylate] | – | – | > 500 | 10 to 500
8 | CCOC(=O)c1c[nH]c2ncnc(-c3ccncc3)c12 [Example 1-14, ethyl 4-pyridin-4-yl-7H-pyrrolo[2,3-d]pyrimidine-5-carboxylate] | – | – | > 500 | 10 to 500
9 | CCOC(=O)c1c[nH]c2ncnc(-c3ccc(OC)cc3)c12 [Example 1-15, ethyl 4-(4-methoxyphenyl)-7H-pyrrolo[2,3-d]pyrimidine-5-carboxylate] | 134 | 5.7 | – | –
10 | CCOC(=O)c1c[nH]c2ncnc(-c3cccc(OC)c3)c12 [Example 1-17, ethyl 4-(3-methoxyphenyl)-7H-pyrrolo[2,3-d]pyrimidine-5-carboxylate] | – | – | 10 to 500 | 10 to 500
11 | CCOC(=O)c1c[nH]c2ncnc(C3=CCN(C(=O)OC(C)(C)C)CC3)c12 [Example 1-18, ethyl 4-[1-(tert-butoxycarbonyl)-1,2,3,6-tetrahydropyridin-4-yl]-7H-pyrrolo[2,3-d]pyrimidine-5-carboxylate] | – | – | 10 to 500 | 10 to 500
12 | CCOC(=O)c1c[nH]c2ncnc(C3=CCCN(C(=O)OC(C)(C)C)C3)c12 [Example 1-19, ethyl 4-[1-(tert-butoxycarbonyl)-1,2,5,6-tetrahydropyridin-3-yl]-7H-pyrrolo[2,3-d]pyrimidine-5-carboxylate] | – | – | > 500 | 10 to 500
13 | CCOC(=O)c1c[nH]c2ncnc(C3=CCN(C(=O)OC(C)(C)C)C3)c12 [Example 1-20, ethyl 4-[1-(tert-butoxycarbonyl)-2,5-dihydro-1H-pyrrol-3-yl]-7H-pyrrolo[2,3-d]pyrimidine-5-carboxylate] | – | – | > 500 | 10 to 500
14 | CCOC(=O)c1c[nH]c2ncnc(-c3cccc(OCC(F)(F)F)c3)c12 [Example 1-21, ethyl 4-[3-(2,2,2-trifluoroethoxy)phenyl]-7H-pyrrolo[2,3-d]pyrimidine-5-carboxylate] | 73 | 3.5 | – | –
15 | CCOC(=O)c1c[nH]c2ncnc(C3=CCCCC3)c12 [Example 1-23, ethyl 4-cyclohex-1-en-1-yl-7H-pyrrolo[2,3-d]pyrimidine-5-carboxylate] | 62 | 6 | – | –
16 | CCOC(=O)c1c[nH]c2ncnc(-c3cccc(OC(F)(F)F)c3)c12 [Example 1-26, ethyl 4-[3-(trifluoromethoxy)phenyl]-7H-pyrrolo[2,3-d]pyrimidine-5-carboxylate] | – | – | 10 to 500 | 10 to 500
17 | CCOC(=O)c1c[nH]c2ncnc(-c3cnn(C)c3)c12 [Example 1-27, ethyl 4-(1-methyl-1H-pyrazol-4-yl)-7H-pyrrolo[2,3-d]pyrimidine-5-carboxylate] | – | – | > 500 | 10 to 500
18 | CCOC(=O)c1c[nH]c2ncnc(-c3cccnc3)c12 [Example 1-28, ethyl 4-pyridin-3-yl-7H-pyrrolo[2,3-d]pyrimidine-5-carboxylate] | – | – | > 500 | 10 to 500
19 | CCOC(=O)c1c[nH]c2ncnc(-c3cccc(OCc4ccccc4)c3)c12 [Example 1-52, ethyl 4-[3-(benzyloxy)phenyl]-7H-pyrrolo[2,3-d]pyrimidine-5-carboxylate] | – | 3.3 | – | –

Now from value to compound:

Row | IC50 (JAK2) [nM] | IC50 (JAK3) [nM] | IC50 (JAK2; given as range class) [nM] | IC50 (JAK3; given as range class) [nM] | SMILES
20 | 273 | 7.2 | – | – | CCOC(=O)c1c[nH]c2ncnc(-c3ccc4cn(C)nc4c3)c12 [Example 1-5, ethyl 4-(2-methyl-2H-indazol-6-yl)-7H-pyrrolo[2,3-d]pyrimidine-5-carboxylate]
21 | – | – | > 500 | 10 to 500 | CCOC(=O)c1c[nH]c2ncnc(-c3ccc(C(N)=O)cc3)c12 [Example 1-7, ethyl 4-(4-carbamoylphenyl)-7H-pyrrolo[2,3-d]pyrimidine-5-carboxylate]
22 | – | – | > 500 | 10 to 500 | CCOC(=O)c1c[nH]c2ncnc(-c3cccc(C(=O)OC)c3)c12 [Example 1-8, ethyl 4-[3-(methoxycarbonyl)phenyl]-7H-pyrrolo[2,3-d]pyrimidine-5-carboxylate]
23 | – | – | > 500 | 10 to 500 | CCOC(=O)c1c[nH]c2ncnc(-c3ccc(C(=O)OC)cc3)c12 [Example 1-9, ethyl 4-[4-(methoxycarbonyl)phenyl]-7H-pyrrolo[2,3-d]pyrimidine-5-carboxylate]
24 | – | – | > 500 | 10 to 500 | CCOC(=O)c1c[nH]c2ncnc(-c3cccc(C(N)=O)c3)c12 [Example 1-12, ethyl 4-(3-carbamoylphenyl)-7H-pyrrolo[2,3-d]pyrimidine-5-carboxylate]
25 | – | – | > 500 | 10 to 500 | CCOC(=O)c1c[nH]c2ncnc(-c3ccc(C(=O)N(C)C)cc3)c12 [Example 1-13, ethyl 4-[4-(dimethylcarbamoyl)phenyl]-7H-pyrrolo[2,3-d]pyrimidine-5-carboxylate]
26 | 78 | 4.6 | – | – | CCOC(=O)c1c[nH]c2ncnc(-c3ccc(C)c(N)c3)c12 [Example 1-22, ethyl 4-(3-amino-4-methylphenyl)-7H-pyrrolo[2,3-d]pyrimidine-5-carboxylate]
27 | 125 | 7.5 | – | – | CCOC(=O)c1c[nH]c2ncnc(-c3ccc(Cl)c(N)c3)c12 [Example 1-24, ethyl 4-(3-amino-4-chlorophenyl)-7H-pyrrolo[2,3-d]pyrimidine-5-carboxylate]
28 | – | – | 10 to 500 | 10 to 500 | CCOC(=O)c1c[nH]c2ncnc(-c3ccc4sc(C)nc4c3)c12 [Example 1-25, ethyl 4-(2-methyl-1,3-benzothiazol-5-yl)-7H-pyrrolo[2,3-d]pyrimidine-5-carboxylate]
29 | – | 8.1 | – | – | CCOC(=O)c1c[nH]c2ncnc(-c3ccc4c(F)n(C)nc4c3)c12 [Example 1-29, ethyl 4-(3-fluoro-2-methyl-2H-indazol-6-yl)-7H-pyrrolo[2,3-d]pyrimidine-5-carboxylate]
30 | – | – | > 500 | 10 to 500 | CCOC(=O)c1c[nH]c2ncnc(-c3ccc4c(C(=O)N(C)C)n(C)nc4c3)c12 [Example 1-30, ethyl 4-[3-(dimethylcarbamoyl)-2-methyl-2H-indazol-6-yl]-7H-pyrrolo[2,3-d]pyrimidine-5-carboxylate]
31 | – | 8.3 | – | – | CCOC(=O)c1c[nH]c2ncnc(-c3ccc(CO)c(N)c3)c12 [Example 1-32, ethyl 4-[3-amino-4-(hydroxymethyl)phenyl]-7H-pyrrolo[2,3-d]pyrimidine-5-carboxylate]
32 | – | 8.4 | – | – | CCOC(=O)c1c[nH]c2ncnc(-c3cccc(Cl)c3)c12 [Example 1-39, ethyl 4-(3-chlorophenyl)-7H-pyrrolo[2,3-d]pyrimidine-5-carboxylate]
